24 compounds from ChEMBL document CHEMBL3856205, “Synthesis and biological evaluation of novel 4-hydroxytamoxifen analogs as estrogen-related receptor gamma inverse agonists” (Eur J Med Chem, 2016) can be followed below.

For data set [1], the target named is T1, Estrogen-related receptor gamma (Homo sapiens, UniProt P62508).
T1 sequence (P62508 whole entry): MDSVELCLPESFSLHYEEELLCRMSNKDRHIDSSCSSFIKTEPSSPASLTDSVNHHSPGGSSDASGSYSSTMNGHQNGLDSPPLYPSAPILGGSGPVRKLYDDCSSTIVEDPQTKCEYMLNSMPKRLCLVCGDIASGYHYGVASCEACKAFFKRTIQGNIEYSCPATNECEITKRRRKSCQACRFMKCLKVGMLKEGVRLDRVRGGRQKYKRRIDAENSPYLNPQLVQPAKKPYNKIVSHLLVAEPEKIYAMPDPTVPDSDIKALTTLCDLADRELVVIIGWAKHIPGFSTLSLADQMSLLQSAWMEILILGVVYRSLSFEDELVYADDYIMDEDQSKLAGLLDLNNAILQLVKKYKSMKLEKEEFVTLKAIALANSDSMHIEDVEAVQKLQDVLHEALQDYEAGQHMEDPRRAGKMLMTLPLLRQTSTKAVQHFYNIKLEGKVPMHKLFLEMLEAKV
Description: Inhibition of fluorescien-conjugated coactivator PGC1a binding to GST-tagged human ERRgamma LBD after 1 hr by TR-FRET assay

The next data set addresses CYP3A4 (Homo sapiens, UniProt P08684). The data set is described as follows: Inhibition of CYP3A4 in human liver microsomes assessed as remaining activity by measuring midazolam 1'-hydroxylase activity at 10 uM pre-incubated for 5 mins followed by NADPH regenerating system addition by LC-MS/MS analysis relative to control. It is filed as ADME. The following applies: probe midazolam (1'-hydroxylation), read-out: Activity.

Data set [2] can be described thus: Permeability of the compound in PBS at pH 7.4 at 10 uM after 5 hrs by LC-MS/MS analysis. It is filed as ADME. Particulars: not told, read-out: permeability.
In a further data set the target is CYP2C19 (Homo sapiens, UniProt P33261). The data set is described as follows: Inhibition of CYP2C19 in human liver microsomes assessed as remaining activity by measuring S-mephenytoin 4-hydroxylase activity at 10 uM pre-incubated for 5 mins followed by NADPH regenerating system addition by LC-MS/MS analysis relative to control. It is filed as ADME. Particulars: probe S-mephenytoin (4-hydroxylation), read-out: Activity.
Sequence of CYP2C19 (P33261 whole entry): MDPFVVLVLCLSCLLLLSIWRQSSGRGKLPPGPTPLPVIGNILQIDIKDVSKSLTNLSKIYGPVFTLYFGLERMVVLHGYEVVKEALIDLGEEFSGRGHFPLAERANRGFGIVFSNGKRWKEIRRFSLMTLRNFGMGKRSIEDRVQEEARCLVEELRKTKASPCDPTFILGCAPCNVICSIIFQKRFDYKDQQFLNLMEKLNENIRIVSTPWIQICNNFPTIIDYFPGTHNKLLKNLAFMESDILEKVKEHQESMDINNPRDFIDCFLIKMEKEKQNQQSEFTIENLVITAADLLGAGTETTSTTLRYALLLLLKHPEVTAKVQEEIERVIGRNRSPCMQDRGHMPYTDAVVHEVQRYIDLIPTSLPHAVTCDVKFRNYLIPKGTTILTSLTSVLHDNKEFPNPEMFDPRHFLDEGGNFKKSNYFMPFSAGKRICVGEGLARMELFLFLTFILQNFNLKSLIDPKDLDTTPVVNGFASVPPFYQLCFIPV

For a further data set, the target named is CYP2D6 (Homo sapiens, UniProt P10635). Nature of the data set: Inhibition of CYP2D6 in human liver microsomes assessed as remaining activity by measuring dextromethorphan O-demethylase activity at 10 uM pre-incubated for 5 mins followed by NADPH regenerating system addition by LC-MS/MS analysis relative to control. It is filed as ADME. The following applies: probe dextromethorphan (O-demethylation), read-out: Activity.
Sequence of CYP2D6 (P10635 whole entry): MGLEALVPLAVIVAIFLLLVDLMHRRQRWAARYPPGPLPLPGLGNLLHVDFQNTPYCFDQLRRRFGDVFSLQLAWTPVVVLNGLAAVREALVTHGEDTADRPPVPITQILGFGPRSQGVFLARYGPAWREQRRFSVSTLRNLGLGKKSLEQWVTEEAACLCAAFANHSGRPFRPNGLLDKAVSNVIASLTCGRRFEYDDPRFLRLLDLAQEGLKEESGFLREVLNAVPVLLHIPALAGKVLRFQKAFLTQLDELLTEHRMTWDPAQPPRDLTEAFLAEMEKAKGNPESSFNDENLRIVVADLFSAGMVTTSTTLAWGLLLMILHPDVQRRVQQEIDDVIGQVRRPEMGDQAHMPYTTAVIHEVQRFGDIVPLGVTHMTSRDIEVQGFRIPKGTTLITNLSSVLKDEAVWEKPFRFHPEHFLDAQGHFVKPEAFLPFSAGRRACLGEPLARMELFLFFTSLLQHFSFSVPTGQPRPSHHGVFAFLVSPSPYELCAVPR

For another data set, the target named is CYP2C9 (Homo sapiens, UniProt P11712). Nature of the data set: Inhibition of CYP2C9 in human liver microsomes assessed as remaining activity by measuring tolbutamide 4-hydroxylase activity at 10 uM pre-incubated for 5 mins followed by NADPH regenerating system addition by LC-MS/MS analysis relative to control. It is filed as ADME. Particulars: probe tolbutamide (4-hydroxylation), read-out: Activity.
Sequence of CYP2C9 (P11712 whole entry): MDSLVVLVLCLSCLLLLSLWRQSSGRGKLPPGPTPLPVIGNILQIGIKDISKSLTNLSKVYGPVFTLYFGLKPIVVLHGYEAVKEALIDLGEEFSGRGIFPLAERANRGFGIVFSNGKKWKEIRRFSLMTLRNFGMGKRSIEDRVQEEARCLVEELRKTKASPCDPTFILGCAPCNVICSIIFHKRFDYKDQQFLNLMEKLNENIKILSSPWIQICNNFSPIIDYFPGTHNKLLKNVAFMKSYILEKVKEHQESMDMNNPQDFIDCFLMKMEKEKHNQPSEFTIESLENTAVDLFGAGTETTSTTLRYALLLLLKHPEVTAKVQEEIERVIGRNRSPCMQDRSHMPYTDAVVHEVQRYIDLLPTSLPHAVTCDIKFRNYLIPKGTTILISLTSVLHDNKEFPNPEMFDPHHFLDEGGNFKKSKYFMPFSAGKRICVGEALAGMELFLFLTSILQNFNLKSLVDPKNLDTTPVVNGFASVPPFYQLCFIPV

Data set [3] is described as follows: in vitro. The following applies: rat, liver microsomes.
Description: Metabolic stability in rat liver microsomes assessed as compound remaining at 1 uM after 30 mins in presence of NADPH by LC-MS/MS analysis
The nature of data set [4]: in vitro. The following applies: human, liver microsomes.
Description: Metabolic stability in human liver microsomes assessed as compound remaining at 1 uM after 30 mins in presence of NADPH by LC-MS/MS analysis
Another data set deals with T2, CYP1A2 (Homo sapiens, UniProt P05177).
T2 sequence (P05177 whole entry): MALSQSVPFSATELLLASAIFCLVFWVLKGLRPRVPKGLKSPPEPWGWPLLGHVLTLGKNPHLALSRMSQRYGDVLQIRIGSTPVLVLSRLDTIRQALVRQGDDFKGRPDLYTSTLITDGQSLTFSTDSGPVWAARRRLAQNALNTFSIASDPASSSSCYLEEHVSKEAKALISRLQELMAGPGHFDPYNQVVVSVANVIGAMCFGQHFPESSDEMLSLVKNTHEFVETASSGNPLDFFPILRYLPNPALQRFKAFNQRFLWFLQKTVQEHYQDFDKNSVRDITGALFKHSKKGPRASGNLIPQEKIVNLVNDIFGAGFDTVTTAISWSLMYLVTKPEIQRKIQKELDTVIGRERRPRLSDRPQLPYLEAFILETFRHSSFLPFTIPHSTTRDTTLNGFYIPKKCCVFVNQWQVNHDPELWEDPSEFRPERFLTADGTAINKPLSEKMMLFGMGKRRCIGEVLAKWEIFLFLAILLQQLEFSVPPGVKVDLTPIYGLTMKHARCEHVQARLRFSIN
Nature of the data set: Inhibition of CYP1A2 in human liver microsomes assessed as remaining activity by measuring phenacetin O-deethylase activity at 10 uM pre-incubated for 5 mins followed by NADPH regenerating system addition by LC-MS/MS analysis relative to control. The following applies: probe phenacetin (O-deethylation), read-out: Activity. It is filed as ADME.

Data set [5] addresses T3, Steroid hormone receptor ERR1 (Homo sapiens, UniProt P11474).
T3 sequence (P11474 whole entry): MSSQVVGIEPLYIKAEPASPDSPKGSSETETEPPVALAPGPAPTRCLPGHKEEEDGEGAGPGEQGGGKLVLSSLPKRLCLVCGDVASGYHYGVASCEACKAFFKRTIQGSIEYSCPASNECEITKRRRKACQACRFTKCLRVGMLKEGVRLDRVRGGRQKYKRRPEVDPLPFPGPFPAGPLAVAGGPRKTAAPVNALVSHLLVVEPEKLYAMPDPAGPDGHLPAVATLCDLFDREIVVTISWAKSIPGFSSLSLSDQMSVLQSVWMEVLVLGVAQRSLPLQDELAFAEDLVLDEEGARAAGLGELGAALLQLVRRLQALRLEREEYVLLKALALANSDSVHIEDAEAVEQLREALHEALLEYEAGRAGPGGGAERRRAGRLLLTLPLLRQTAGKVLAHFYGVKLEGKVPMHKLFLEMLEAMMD
The data set is described as follows: Inhibition of fluorescien-conjugated coactivator PGC1a binding to ERRalpha (unknown origin) after 1 hr by TR-FRET assay.

Data set [6] addresses T4, Steroid hormone receptor ERR2 (Homo sapiens, UniProt O95718).
T4 sequence (O95718 whole entry): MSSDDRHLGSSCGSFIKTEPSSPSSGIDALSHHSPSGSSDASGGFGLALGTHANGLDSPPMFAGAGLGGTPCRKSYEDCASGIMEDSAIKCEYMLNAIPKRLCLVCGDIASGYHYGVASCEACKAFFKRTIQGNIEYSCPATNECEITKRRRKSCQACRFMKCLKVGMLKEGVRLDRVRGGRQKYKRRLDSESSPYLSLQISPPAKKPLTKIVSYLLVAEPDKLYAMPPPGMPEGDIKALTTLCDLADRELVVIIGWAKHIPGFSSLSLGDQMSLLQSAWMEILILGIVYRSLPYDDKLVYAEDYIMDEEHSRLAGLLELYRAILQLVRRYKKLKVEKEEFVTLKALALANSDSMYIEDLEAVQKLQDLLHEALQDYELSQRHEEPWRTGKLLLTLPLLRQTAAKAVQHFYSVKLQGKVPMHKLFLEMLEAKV
The data set is described as follows: Inhibition of fluorescien-conjugated coactivator PGC1a binding to ERRbeta (unknown origin) after 1 hr by TR-FRET assay.

Data set [7] concerns the target T1, Estrogen-related receptor gamma. The source holds these as a separate data set.
Description: Inverse agonist activity at ERRgamma (unknown origin) expressed in human AD293 cells after 24 hrs by beta-galactosidase/luciferase reporter gene assay
Data set [8] in a line: in vitro. Particulars: mouse, liver microsomes.
Description: Metabolic stability in mouse liver microsomes assessed as compound remaining at 1 uM after 30 mins in presence of NADPH by LC-MS/MS analysis
Data set [9] can be described thus: Metabolic stability in dog liver microsomes assessed as compound remaining at 1 uM after 30 mins in presence of NADPH by LC-MS/MS analysis. The following applies: read-out: Stability. It is filed as ADME, Canis lupus familiaris.

Some results are limits rather than exact numbers.

Sequence of CYP3A4 (P08684 whole entry): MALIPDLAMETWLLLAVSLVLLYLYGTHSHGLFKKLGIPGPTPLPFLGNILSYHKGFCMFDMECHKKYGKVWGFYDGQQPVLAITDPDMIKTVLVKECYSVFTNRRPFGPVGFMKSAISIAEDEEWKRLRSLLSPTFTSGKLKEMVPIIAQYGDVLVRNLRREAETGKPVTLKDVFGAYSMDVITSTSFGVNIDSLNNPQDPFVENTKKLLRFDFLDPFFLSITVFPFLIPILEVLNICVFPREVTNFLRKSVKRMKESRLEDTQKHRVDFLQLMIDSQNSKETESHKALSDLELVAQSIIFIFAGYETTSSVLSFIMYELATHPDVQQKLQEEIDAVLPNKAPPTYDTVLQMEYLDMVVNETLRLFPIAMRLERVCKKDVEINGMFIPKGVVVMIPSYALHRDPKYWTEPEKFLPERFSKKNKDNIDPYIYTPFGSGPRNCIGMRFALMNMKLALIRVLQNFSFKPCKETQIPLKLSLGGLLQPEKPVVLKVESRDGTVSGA

In data set [1], `CN(C)CCOc1ccc(/C(=C(/CCCO)c2ccccc2)c2ccc(C#N)cc2)cc1` showed an IC50 of over 10 µM.

Turning to `CN(C)CCOc1ccc(/C(=C(/CCCO)c2ccccc2)c2ccc(S(C)(=O)=O)cc2)cc1`, the half-maximal inhibitory concentration (IC50) in data set [1] is over 10 µM.

Take `CN(C)CCOc1ccc(/C(=C(/CCCO)c2cccnc2)c2ccc(Br)cc2)cc1`: the IC50 in data set [1] was over 10 µM.

As for `CN(C)CCOc1ccc(/C(=C(/CCCO)c2ccccc2)c2ccc(Cl)cc2)cc1`, the IC50 in [1] worked out at 0.52 µM. In other words, the sub-micromolar range.

`CN(C)CCOc1ccc(/C(=C(/CCCO)c2ccccc2)c2ccc(F)cc2)cc1` returned a half-maximal inhibitory concentration (IC50) in data set [1] of 3.9 µM.

Turning to `CN(C)CCOc1ccc(/C(=C(/CCCO)c2cccnc2)c2ccccc2)cc1`, the concentration for half-maximal inhibition (IC50) in data set [1] was over 10 µM.

In turn, `Cc1ccc(/C(=C(\CCCO)c2cccnc2)c2ccc(OCCN(C)C)cc2)cc1` yielded a 50% inhibitory concentration (IC50) in data set [1] of over 10 µM.

The compound `COc1ccc(/C(=C(\CCCO)c2ccc3cnn(C)c3c2)c2ccc(OCCN(C)C)cc2)cc1` returned an IC50 in [1] of over 10 µM.

In turn, `Cc1ccc(/C(=C(\CCCO)c2cccc(F)c2)c2ccc(OCCN(C)C)cc2)cc1` returned a concentration for half-maximal inhibition (IC50) in data set [1] of 0.5 µM.

Take `CN(C)CCOc1ccc(/C(=C(/CCCO)c2ccccc2)c2ccc(F)cc2F)cc1`: in data set [1], the IC50 came to 6.7 µM.

In the case of `CN(C)CCOc1ccc(/C(=C(/CCC(F)F)c2ccccc2)c2ccc(Br)cc2)cc1`, in data set [1], the half-inhibitory concentration (IC50) was 0.89 µM.

With `CN(C)CCOc1ccc(/C(=C(/CCCO)c2ccccc2)c2ccc(O)cc2)cc1.Cl`, the activity at 10 µM at CYP3A4 turned out to be 83%; on CYP2C19 it was 78%; on CYP2D6 it was 82%; on CYP2C9 it was 73%; at CYP1A2 it was 84%. In [2], the Papp at 5 h, 10 µM worked out at 4.3 nm/s. Besides, the results for the remaining at 0.5 h, 1 µM in “in vitro [3]” and in “in vitro [4]” were 26% and 43%, respectively.

`CN(C)CCOc1ccc(/C(=C(/CCCF)c2ccccc2)c2ccc(O)cc2)cc1.Cl`: the half-inhibitory concentration (IC50) stood at 8.01 µM in data set [5], 0.722 µM in [6], 0.048 µM in data set [7] and 0.02 µM in data set [1]. In addition, the activity at 10 µM at CYP3A4 was 93%; at CYP2C19, 72%; at CYP2D6, over 100%; on CYP2C9 it was 99%; at CYP1A2, over 100%. The Papp at 5 h, 10 µM in data set [2] turned out to be 21.2 nm/s. Also, the remaining at 0.5 h, 1 µM was found to be 35% in “in vitro [3]”, 72% in “in vitro [4]”, 24% in the data set “in vitro [8]” and 21% in [9].

In the case of `Cc1ccc(/C(=C(\CCCO)c2ccc3cnn(C)c3c2)c2ccc(OCCN(C)C)cc2)cc1`, in [1], the IC50 worked out at 5.6 µM.

In the case of `CN(C)CCCOc1ccc(/C(=C(/CCCO)c2ccccc2)c2ccc(O)cc2)cc1.Cl`, the half-maximal inhibitory concentration (IC50) in [5] was over 10 µM; in data set [6], over 10 µM; in data set [7] it was 0.058 µM; in data set [1], 0.09 µM. Moreover, the activity at 10 µM on CYP3A4 was determined as 79%; on CYP2C19, 64%; at CYP2D6 it was 93%; at CYP2C9, 90%; on CYP1A2, 96%. Besides, in data set [2], the Papp at 5 h, 10 µM is 3.6 nm/s. Also, the remaining at 0.5 h, 1 µM turned out to be 19% in “in vitro [3]”, 72% in the data set “in vitro [4]”, 13% in “in vitro [8]” and 19% in [9].

In the case of `CN(C)CCOc1ccc(/C(=C(/CCCO)c2ccccc2)c2cccnc2)cc1`, the 50% inhibitory concentration (IC50) in data set [1] was over 10 µM.

`CN(C)CCOc1ccc(/C(=C(/CCCO)c2ccccc2)c2ccc(C(F)(F)F)cc2)cc1` showed an IC50 in data set [1] of 1.3 µM.

In data set [1], `CN(C)CCOc1ccc(/C(=C(/CCCO)c2ccccc2)c2ccccc2)cc1` displayed an IC50 of 1.5 µM.

As for `CN(C)CCOc1ccc(/C(=C(/CCCO)c2cccc(F)c2)c2ccc(Br)cc2)cc1`, in [1], the IC50 was found to be 1.1 µM.

With `CN(C)CCOc1ccc(/C(=C(/CCCO)c2ccc3cnn(C)c3c2)c2ccc(Br)cc2)cc1`, the IC50 in data set [1] was 5.3 µM.

In turn, `CN(C)CCOc1ccc(/C(=C(/CCCF)c2ccccc2)c2ccc(Br)cc2)cc1` had an IC50 in data set [1] of 0.48 µM.

In data set [1], `COc1ccc(/C(=C(\CCCO)c2ccccc2)c2ccc(OCCN(C)C)cc2)cc1` came in with a half-maximal inhibitory concentration (IC50) of 1 µM.

Take `CN(C)CCOc1ccc(/C(=C(/CCC(F)F)c2ccccc2)c2ccc(O)cc2)cc1.Cl`: the IC50 in data set [5] is 8.1 µM; in data set [6], over 10 µM; in data set [7], 0.111 µM. In addition, the activity at 10 µM on CYP3A4 stood at 11%; on CYP2C19 it was 11%; on CYP2D6 it was 12%; at CYP2C9 it was 60%; on CYP1A2, 14%. In data set [2], the Papp at 5 h, 10 µM worked out at 5.4 nm/s. In addition, the remaining at 0.5 h, 1 µM in “in vitro [3]” was 66%; in “in vitro [4]”, 77%; in “in vitro [8]” it was 91%; in [9] it was 73%.

Compound `CN(C)CCOc1ccc(/C(=C(/CCCO)c2ccccc2)c2ccncc2)cc1` returned an IC50 in [1] of over 10 µM.
